What all share (format): cell-based, Lacticaseibacillus paracasei YIT 9029
Test [1] has as its system LcS. In words: cF excretion activity by addition of various saccharides of LcS (cFDA/PI double staining, flow cytometry). As to conditions: LcS from New Yakult suspended in 1% saccharide solution; cFDA 50 μM, PI 30 μM. The method, then:
(§1) A beverage or food containing LcS (New Yakult: manufactured by Yakult Honsha Co., Ltd.) stored at about 4° C. within 16 days after production was diluted 10-fold with DPBS, then washed by centrifugation three times with DPBS, and the cell pellet was collected. The cell pellet obtained above was suspended in a 1% (V/W) solution in which a saccharide shown in Table 1 was dissolved in purified water. Further, the suspension was diluted with DPBS so that the cell concentration in the suspension was about 10^6 cells/mL, and cFDA was added thereto at a final concentration of 50 μM, and the resultant was left to stand at 30° C. for 15 minutes. Subsequently, propidium iodide was added thereto at a final concentration of 30 μM, and the resultant was left to stand at room temperature for 15 minutes, and then subjected to FACSAriaTM fusion (manufactured by Becton Dickinson) to measure the cF fluorescence intensity. A case where 90% or more of the total bacterial cells were counted as cF^- was determined to have cF excretion activity. In Table 1, those determined to have cF excretion activity are indicated by +, and those determined to have no cF excretion activity are indicated by -. The assimilation of a saccharide was examined using AP[…] (manufactured by bioMérieux Japan Co., Ltd.), which is a kit for identifying bacteria. A saccharide that can be assimilated by LcS is indicated by +, and a saccharide that cannot be assimilated by LCS is indicated by -.
On the technique in general: Flow cytometry measures light scatter and fluorescence of single cells or particles in a stream.

Test [2] concerns LcS. The test is described as follows: Assimilation of a saccharide examined using API50cH. On the set-up: key: A saccharide that can be assimilated by LcS is indicated by +; a saccharide that cannot be assimilated by LCS is indicated by −. As to conditions: assimilation by LcS, API50cH kit. The method, then: as §1, with “The” for “A beverage or food containing LcS (New Yakult: manufactured by Yakult Honsha Co., Ltd.) stored at about 4° C. within 16 days after production was diluted 10-fold with DPBS, then washed by centrifugation three times with DPBS, and the cell pellet was collected. The”

Test [3] relates to LcS. In words: Time course of cF accumulation and cF excretion of LcS. On the procedure:
A cultured bacterial solution of LcS in MRS medium was washed by centrifugation with Dulbecco's PBS (DPBS: manufactured by Thermo Fisher Scientific, Inc.), thereby removing saccharides. CFDA was added to the DPBS suspension of LcS obtained above at a final concentration of 50 μM (t=0), and cF accumulation from 0 to 20 minutes thereafter was examined by Gallios. In addition, to the DPBS suspension of LcS obtained above, CFDA was added at a final concentration of 50 μM, and the resultant was left to stand at 30° C. for 30 minutes to allow cF to accumulate in the bacterial cells. Subsequently, glucose was added at a final concentration of 10 mM (t=0), and cF excretion in 15 minutes thereafter was examined. Further, to the DPBS suspension of LcS obtained above, CFDA was added at a final concentration of 50 μM, and the resultant was left to stand at 30° C. for 30 minutes to allow cF to accumulate in the bacterial cells. Subsequently, glucose was added at a final concentration of 0.001 mM, 0.01 mM, 0.1 mM, or 1 mM (t=0), and cF excretion in 15 minutes thereafter was examined.

Take `O=CC[C@@H](O)[C@@H](O)[C@H](O)CO` [2-deoxy-D-galactose]: the cF excretion activity result with LcS [1] is on record as “− (those determined to have no cF excretion activity are indicated by −)”.

Take `OC[C@H]1O[C@@H](O[C@H]2[C@H](O)[C@@H](O)C(O)O[C@@H]2CO)[C@H](O)[C@@H](O)[C@H]1O` (stereo partly shown) [Lactose]: in the test on LcS [1], the cF excretion activity entry was “− (those determined to have no cF excretion activity are indicated by −)”. The Assimilability entry in the test on LcS [2] is reported as “+”.

`O=C[C@H](O)[C@@H](O)[C@H](O)[C@H](O)CO` [D-glucose]: the cF excretion result is given as “significant delay in excretion” in the test on LcS [3] (glucose final concentration 0.001 mM) and “slight delay in excretion” in the test with LcS [3] (glucose final concentration 0.01 mM). Besides, the “time after which cF began to be rapidly excreted” value in the test with LcS [3] (glucose final concentration 10 mM, LcS with cF accumulated in advance) is “about 3 minutes”. Besides, in the test with LcS [1], the cF excretion activity result is reported as “+ (A case where 90% or more of the total bacterial cells were counted as cF^− was determined to have cF excretion activity)”. Further, the Assimilability result with LcS [2] is on record as “+”.

Take `O=C[C@@H](O)[C@@H](O)[C@H](O)[C@H](O)CO` [D-mannose]: the cF excretion activity result in the test on LcS [1] was “+ (A case where 90% or more of the total bacterial cells were counted as cF^− was determined to have cF excretion activity)”. For the same molecule, the Assimilability entry in the test with LcS [2] was “+”.

Take `O=C[C@H](O)[C@@H](O)[C@@H](O)[C@H](O)CO` [D-galactose]: the cF excretion activity result with LcS [1] is given as “+ (A case where 90% or more of the total bacterial cells were counted as cF^− was determined to have cF excretion activity)”. Besides, the Assimilability result in the test on LcS [2] is recorded as “+”.

Regarding `C[C@H](O)[C@H](O)[C@@H](O)[C@@H](O)C=O` [L-rhamnose], the cF excretion activity entry in the test on LcS [1] is on record as “− (those determined to have no cF excretion activity are indicated by −)”. For the same molecule, the Assimilability result in the test on LcS [2] was “−”.

Take `O=C[C@H](O)[C@@H](O)[C@@H](O)CO` [L-arabinose]: in the test with LcS [1], the cF excretion activity result is listed as “− (those determined to have no cF excretion activity are indicated by −)”. The Assimilability result with LcS [2] is “−”.

For carboxyfluorescein diacetate [cFDA], the “time after which cF accumulation amount was almost saturated” value in the test with LcS [3] (cFDA 50 μM, no sugar, DPBS suspension of LcS) is 20 min.

As for `OC[C@H]1O[C@@](CO)(O[C@H]2O[C@H](CO)[C@@H](O)[C@H](O)[C@H]2O)[C@@H](O)[C@@H]1O` [sucrose], in the test on LcS [1], the cF excretion activity result is given as “− (those determined to have no cF excretion activity are indicated by −)”. The Assimilability entry in the test with LcS [2] is listed as “+”.

With `O=C(CO)[C@@H](O)[C@H](O)[C@@H](O)CO` [L-sorbose], in the test on LcS [1], the cF excretion activity entry was “− (those determined to have no cF excretion activity are indicated by −)”. The Assimilability result in the test on LcS [2] is recorded as “+”.

In the case of `O=CC[C@@H](O)[C@H](O)[C@H](O)CO` [2-deoxy-D-glucose], the cF excretion activity result with LcS [1] was “− (those determined to have no cF excretion activity are indicated by −)”.

These data come from patent US20240247298A1, “METHOD FOR DETECTING LIVE LACTIC ACID BACTERIA WITH CARBOHYDRATE METABOLISM ACTIVITY” (KABUSHIKI KAISHA YAKULT HONSHA, priority 2021, published 2024).
